Series [1] is described as follows: Serum 5-PAHSA after oral administration. The format is in vivo, mouse. The following applies: oral gavage. The method, then:
FIG. 56 is a bar graph showing serum 5-PAHSA levels after oral administration of synthesized 5-PAHSA. 3 h after food removal, mice were gavaged with 30 mg/kg body weight (chow-fed) or 45 mg/kg body weight (HFD-fed) of 5-PAHSA. 5 h post gavage, blood was collected via tail vein and serum 5-PAHSA was analyzed by mass spectrometry. n=3 mice per group. Data are expressed as mean±s.e.m. *p<0.05 vs. vehicle treated on the same diet; and δp<0.05 vs. chow vehicle.

The subject of another series is isolated rat islets. Description: Insulin release in isolated rat islets. The format is cell-based. Conditions: 25 mM glucose in the media. The protocol: Ins1 cells (FIG. 21) or primary rat islet cells (FIG. 22) were seeded in 24 well-plates [˜10^6 cells/well]. At confluence, cells were incubated with Low Serum [2.5%] and Low Glucose [2.5 mM] media for 12 hours. Next, cells were incubated with KRB buffer for 1 h and stimulated with glucose in the presence of 5-PAHSA (FIG. 21) or 9-PAHSA (FIG. 21) for 45 min in KRB. At the end of the stimulation, 100 μL of media was collected and 10 μL was used to quantitate the amount of insulin released by ELISA. Treatment Conditions for FIGS. 21 and 22 were: • 5-PAHSA or 9-PAHSA [Stock]=20.0 mM [10.76 mg/mL Methanol] • A] 1 uM=0.3 uL/6 mL [Amount of methanol/mL=0.05 uL] • B] 5 uM=1.5 uL/6 mL [Amount of methanol/mL=0.25 uL] • C] 10 uM=3.0 uL/6 mL [Amount of methanol/mL=0.50 uL] • D] 20 uM=6.0 uL/6 mL [Amount of methanol/mL=1.00 uL] […]
Isolated rat islets were cultured overnight in RPMI 1640 medium containing 2.5 mM glucose and 2.5% fetal bovine serum supplemented with 100 IU/ml penicillin and 100 IU/ml streptomycin, 1 mM sodium pyruvate, and 10 mM HEPES (pH 7.4). […] At the end of the stimulation supernatant was collected and insulin released into the medium was quantified by ELISA as per manufacturer's protocol. The islets were lysed and protein content was measured and the amount of insulin released into the media was quantitated as ng/mL/μg of protein.

A short description of series [2]: FAHFA hydrolysis assay (9-PAHSA to 9-HSA), liver lysate. The following applies: liver lysate 1 mg/ml protein, 100 μM, 37° C., two hours.
Experimental: To establish whether or not FAHFA can be enzymatically degraded, an LC-MS-based in vitro activity assay was developed to measure the hydrolysis of 9-PAHSA to 9-HSA. […] Liver lysate (1 mg/ml protein) was incubated with 100 μM 9-PAHSA at 37° C. for two hours. The reaction mixture was then extracted with one volume ethyl acetate, concentrated under nitrogen gas stream, and reconstituted in 1:1 chloroform:methanol for MS analysis.
The test system of series [3] is LPS-activated dendritic cells. Description: LPS-induced activation of bone marrow-derived dendritic cells. The format is cell-based, mouse. The method, then:
Mouse bone marrow cells were flushed from the femurs and tibiae. The red blood cells were eliminated and the cells plated at a density of 1.0×10^6 cells/mL in RBMI complete medium containing 10% FCS plus 20 ng/ml GM-CSF. The medium was replaced on day 4, and the cells were harvested on day 6 to obtain immature DCs. To obtain mature DCs, LPS was added to the cultures at a final concentration of 100 ng/mL on day 6, and the cells were cultured for an additional 24 h, as previously described by Macia, L., et al. Impairment of dendritic cell functionality and steady-state number in obese mice. J Immunol 177, 5997-6006 (2006), which is incorporated by reference in its entirety. To test the anti-inflammatory effects of 9-PAHSA, immature BMDC were treated with 9-PAHSA in a dose response dependent manner in the presence of 100 ng/mL of LPS. The activation status of the BMDCs was evaluated by measuring the expression of MHCII and co-stimulatory molecules using Flow Cytometry and by the production of pro-inflammatory cytokines (IL-6, TNF, IL-12 and IL-1β) which was assessed by ELISA.
Mouse bone marrow cells were flushed from the femurs and tibiae. The red blood cells were lysed, and the cells were plated at a density of 0.5×10^6 cells/mL in RPMI 1640 Low medium (Gibco, USA) containing 10% FCS (Gibco, USA) and 20 ng/mL GM-CSF. […]
The immature dendritic cells obtained in the day 6 were maturated with LPS in the presence of different concentrations of 9-PAHSA varying between 100 ng/mL to 20 ug/mL. The cells were maturated for 24 h and the maturation status analyzed by cytokine production and co-stimulatory molecules expression.
The cells were analyzed by Multicolor Flow cytometry. […] The cells were analyzed with an LSR II flow cytometer (BD) and FlowJo software.
An ELISA assay (Biolegend) was used to measure the concentration of IL-12p70 protein in conditioned media from immature and mature BMDCs. This assay allowed for the detection of total IL-12p70 concentrations in the range of 15.6-1,000 pg/ml, and the results are expressed as pg/mL IL-12p70.

Consider `CCCCCCCCCCCCCCCC(=O)OC(CCCCCCCCCCCCC)CCCC(=O)O` (stereo not shown) [5-PAHSA], for which the “serum 5-PAHSA levels versus chow baseline” value in series [1] (HFD-fed mice) was “more than restored the levels”. For the same compound, the “increase in serum 5-PAHSA levels” value in series [1] (mice on chow (30 mg/kg) and HFD (45 mg/kg), 5 h post gavage) is reported as 3-5 fold. Besides, in the series on isolated rat islets, the glucose-stimulated insulin secretion entry was “potentiates glucose-stimulated insulin secretion”.

Turning to `CCCCCCCCCCCCCCCC(=O)OC(CCCCCCCCC)CCCCCCCC(=O)O` (stereo not shown) [9-PAHSA, palmitoyl-9-hydroxystearic acid], the “hydrolysis of 9-PAHSA to 9-HSA” value in series [2] is listed as “Substantial 9-HSA production”. In addition, the IL-12 production result in series [3] (LPS 100 ng/mL) was “blocks IL-12 production”. For the same compound, in series [3] (LPS-induced), the “expression of MHCII and co-stimulatory molecules (CD40, CD80, CD86)” value was “reducing expression of MHCII and co-stimulatory molecules”. Besides, the “LPS-induced dendritic cell activation” value in series [3] (dose response) is recorded as “prevents LPS-induced dendritic cell activation in a dose dependent manner”.

The values are drawn from patent US10604473B2, “Lipids that increase insulin sensitivity and methods of using the same” (Beth Israel Deaconess Medical Center, Inc., priority 2013, dated 2020).
